Test results published in US20160101148A1, “TREATMENT AND PREVENTION OF BACTERIAL SKIN INFECTIONS USING ORITAVANCIN” (priority 2013, published 2016).
In brackets after ≈: the same amount, converted by molar mass. Where two headings read alike, the source gives them in different places. One block for each compound: values may come before it.

Columns and labels:
[1] = tested on: S. aureus strains (14 mecC MRSA, 2 mecA MRSA, ATCC 29213 MSSA); assay: Broth microdilution MIC determination; assay type: cell-based, Staphylococcus aureus; conditions: Staphylococcus aureus; for MIC: read-out: MIC; for MIC90: mecC strains, read-out: MIC90
Procedure: The S. aureus (SA) strains used in this study were: ATCC 43300 (mecA methicillin-resistant SA [MRSA]); ATCC 33591 (mecA MRSA), ATCC 29213 (methicillin-susceptible SA; quality control strain) and 14 mecC MRSA obtained from the Staten Serum Institute (Copenhagen, Denmark).
Tests with oritavancin included polysorbate-80 (final test concentration of 0.002%) as described (CLSI 2012a; Arhin et al., 2008). Tests with daptomycin included CaCl2 at a concentration of 50 mg/L. MICs were read after 24 h incubation.

[2] = tested on: S. aureus strains (14 mecC MRSA, 2 mecA MRSA, ATCC 29213 MSSA); assay: In vitro time-kill assays at free peak and free trough concentrations; assay type: cell-based, Staphylococcus aureus; conditions: for Time to cidality (≧3 log decrease): daptomycin ƒCmax 4 mg/L; for Change in cell density at 24 h relative to starting inoculum: daptomycin ƒCmin 0.5 mg/L
Procedure: Viable cell count was determined by serial dilution plating, including the use of 25 g/L charcoal suspension to limit antibiotic carryover. […] Time-kill assays were repeated at least twice independently; results presented are from a representative experiment.
Doubling dilution concentrations of comparator agents were likewise chosen to approximate their fCmax and fCmin levels in plasma when administered at approved dosages for complicated skin and skin structure infections, using pharmacokinetic data and protein binding values from their respective package inserts (DAP [Cubicin®]; LZD [Zyvox®]; VAN [Vancocin®]; Table 3).

[3] = ATCC 29213 / ATCC 33591 / MRSA / MSSA, ATCC 33591 MRSA (mecA)
[4] = ATCC 29213 / ATCC 43300 / MRSA / MSSA, ATCC 43300 MRSA (mecA)

MIC ([1]; 57147 MRSA (mecC)): 0.5 µg/mL (≈ 0.309 µM) | MIC ([1]; 70611 MRSA (mecC)): 0.5 µg/mL (≈ 0.309 µM) | MIC ([1]; 73348 MRSA (mecC)): 0.5 µg/mL (≈ 0.309 µM) | MIC ([1]; 73415 MRSA (mecC)): 1 µg/mL (≈ 0.617 µM) | MIC ([1]; 73617 MRSA (mecC)): 1 µg/mL (≈ 0.617 µM) | MIC ([1]; 73829 MRSA (mecC)): 0.5 µg/mL (≈ 0.309 µM) | MIC ([1]; 75814 MRSA (mecC)): 0.5 µg/mL (≈ 0.309 µM) | MIC ([1]; 76918 MRSA (mecC)): 0.5 µg/mL (≈ 0.309 µM) | MIC ([1]; 77431 MRSA (mecC)): 1 µg/mL (≈ 0.617 µM) | MIC ([1]; 77601 MRSA (mecC)): 0.5 µg/mL (≈ 0.309 µM) | MIC ([1]; 77950 MRSA (mecC)): 0.5 µg/mL (≈ 0.309 µM) | MIC ([1]; 77964 MRSA (mecC)): 0.5 µg/mL (≈ 0.309 µM) | MIC ([1]; 78085 MRSA (mecC)): 1 µg/mL (≈ 0.617 µM) | MIC ([1]; 78651 MRSA (mecC)): 0.5 µg/mL (≈ 0.309 µM) | MIC ([1]; ATCC 29213 (MSSA)): 0.5 µg/mL (≈ 0.309 µM) | MIC [1, 3]: 1 µg/mL (≈ 0.617 µM) | MIC [1, 4]: 0.5 µg/mL (≈ 0.309 µM) | MIC ([1]; all strains tested): 0.5 to 1 µg/mL (≈ 0.309 to 0.617 µM) | MIC90 [1]: 1 µg/mL (≈ 0.617 µM)
Compound: CCCCCCCCCC(=O)N[C@@H](Cc1c[nH]c2ccccc12)C(=O)N[C@H](CC(N)=O)C(=O)N[C@@H](CC(=O)O)C(=O)N[C@@H]1C(=O)NCC(=O)N[C@@H](CCCN)C(=O)N[C@@H](CC(=O)O)C(=O)N[C@H](C)C(=O)N[C@@H](CC(=O)O)C(=O)NCC(=O)N[C@H](CO)C(=O)N[C@@H]([C@H](C)CC(=O)O)C(=O)N[C@@H](CC(=O)c2ccccc2N)C(=O)O[C@@H]1C [Daptomycin, daptomycin]
Time to cidality (≧3 log decrease) ([2]; 57147 (mecC)): 1-2 h | Change in cell density at 24 h relative to starting inoculum ([2]; 57147 (mecC)): +2.7 log CFU/mL | Time to cidality (≧3 log decrease) ([2]; 70611 (mecC)): 1-2 h | Change in cell density at 24 h relative to starting inoculum ([2]; 70611 (mecC)): +1.5 log CFU/mL | Change in cell density at 24 h relative to starting inoculum ([2]; 73348 (mecC)): +2.6 log CFU/mL | Time to cidality (≧3 log decrease) ([2]; 73415 (mecC)): 2-4 h | Change in cell density at 24 h relative to starting inoculum ([2]; 73415 (mecC)): +1.5 log CFU/mL | Time to cidality (≧3 log decrease) ([2]; 73617 (mecC)): 1-2 h | Change in cell density at 24 h relative to starting inoculum ([2]; 73617 (mecC)): +3.4 log CFU/mL | Time to cidality (≧3 log decrease) ([2]; 73829 (mecC)): 1-2 h | Change in cell density at 24 h relative to starting inoculum ([2]; 73829 (mecC)): +2.1 log CFU/mL | Time to cidality (≧3 log decrease) ([2]; 75814 (mecC)): 1-2 h | Change in cell density at 24 h relative to starting inoculum ([2]; 75814 (mecC)): +3.6 log CFU/mL | Time to cidality (≧3 log decrease) ([2]; 76918 (mecC)): 1-2 h | Change in cell density at 24 h relative to starting inoculum ([2]; 76918 (mecC)): +1.5 log CFU/mL | Time to cidality (≧3 log decrease) ([2]; 77431 (mecC)): 1-2 h | Change in cell density at 24 h relative to starting inoculum ([2]; 77431 (mecC)): +1.9 log CFU/mL | Change in cell density at 24 h relative to starting inoculum ([2]; 77601 (mecC)): +0.1 log CFU/mL | Time to cidality (≧3 log decrease) ([2]; 77950 (mecC)): 1-2 h | Change in cell density at 24 h relative to starting inoculum ([2]; 77950 (mecC)): +0.9 log CFU/mL | Time to cidality (≧3 log decrease) ([2]; 77964 (mecC)): 1-2 h | Change in cell density at 24 h relative to starting inoculum ([2]; 77964 (mecC)): +1.2 log CFU/mL | Time to cidality (≧3 log decrease) ([2]; 78085 (mecC)): 2-4 h | Change in cell density at 24 h relative to starting inoculum ([2]; 78085 (mecC)): +1.5 log CFU/mL | Change in cell density at 24 h relative to starting inoculum ([2]; 78651 (mecC)): +1.6 log CFU/mL | Time to cidality (≧3 log decrease) ([2]; ATCC 29213 (MSSA)): 2-4 h | Change in cell density at 24 h relative to starting inoculum ([2]; ATCC 29213 (MSSA)): +3.9 log CFU/mL | Change in cell density at 24 h relative to starting inoculum ([2]; ATCC 33591 (mecA)): +3.8 log CFU/mL | Time to cidality (≧3 log decrease) ([2]; ATCC 43300 (mecA)): 1-2 h | Change in cell density at 24 h relative to starting inoculum ([2]; ATCC 43300 (mecA)): +3.6 log CFU/mL | Activity in time-kill assay ([2]; S. aureus strains, fCmin): little to no effect or was bacteriostatic

MIC ([1]; 57147 MRSA (mecC)): 2 µg/mL (≈ 5.93 µM) | MIC ([1]; 70611 MRSA (mecC)): 2 µg/mL (≈ 5.93 µM) | MIC ([1]; 73348 MRSA (mecC)): 2 µg/mL (≈ 5.93 µM) | MIC ([1]; 73415 MRSA (mecC)): 2 µg/mL (≈ 5.93 µM) | MIC ([1]; 73617 MRSA (mecC)): 2 µg/mL (≈ 5.93 µM) | MIC ([1]; 73829 MRSA (mecC)): 2 µg/mL (≈ 5.93 µM) | MIC ([1]; 75814 MRSA (mecC)): 2 µg/mL (≈ 5.93 µM) | MIC ([1]; 76918 MRSA (mecC)): 2 µg/mL (≈ 5.93 µM) | MIC ([1]; 77431 MRSA (mecC)): 2 µg/mL (≈ 5.93 µM) | MIC ([1]; 77601 MRSA (mecC)): 2 µg/mL (≈ 5.93 µM) | MIC ([1]; 77950 MRSA (mecC)): 2 µg/mL (≈ 5.93 µM) | MIC ([1]; 77964 MRSA (mecC)): 2 µg/mL (≈ 5.93 µM) | MIC ([1]; 78085 MRSA (mecC)): 2 µg/mL (≈ 5.93 µM) | MIC ([1]; 78651 MRSA (mecC)): 2 µg/mL (≈ 5.93 µM) | MIC ([1]; ATCC 29213 (MSSA)): 2 µg/mL (≈ 5.93 µM) | MIC [1, 3]: 2 µg/mL (≈ 5.93 µM) | MIC [1, 4]: 1 µg/mL (≈ 2.96 µM) | MIC ([1]; all strains tested): 1 to 2 µg/mL (≈ 2.96 to 5.93 µM) | MIC90 [1]: 2 µg/mL (≈ 5.93 µM)
Compound: CC(=O)NC[C@H]1CN(c2ccc(N3CCOCC3)c(F)c2)C(=O)O1 [Linezolid, linezolid]
Activity in time-kill assay ([2]; all tested strains, both fCmin and fCmax): little to no effect or was bacteriostatic
